Source: US8383637B2, “2-amino-quinazoline derivatives useful as inhibitors of β-secretase (BACE)” (Jansssen Pharmaceutica N.V., priority 2004, dated 2013)
“And” between values parts separate entries of the source, which are not always exact repeats. Equal values may be shown once. Read-outs that look alike come from different tables or passages of the source.

How the values were obtained:
β-secretase(BACE) [1] = molecular target: T1, β-secretase(BACE) (Homo sapiens, UniProt P56817); assay: BACE Assay-2 (FS1 substrate, IC50 and Ki); format: biochemical; details: procedure of Example 159, FS1 substrate; read-out: Ki μM (159)
T1 construct: purchased Panvera
Description: The FS1-substrate stock solution was prepared in DMSO as a 10 mg/mL solution. The FS1-substrate working solution was prepared by diluting the 10 mg/mL stock solution with substrate assay buffer to a final concentration of 300 μg/mL. The β-secretase (BACE) working solution was prepared by diluting a 0.83 mg/mL BACE stock solution with enzyme assay buffer to a final concentration of 4 μg/mL.
Test compounds were dissolved in DMSO at 10 mM.
The procedure for this assay was as follows: 15 μL of BACE working solution was pipetted into each well of a 96-well plate. To each well was then pipetted 2 μL of test compound at the selected concentration. Test compound and BACE were then mixed with a pipettor and incubated for 20 min at room temperature. To each well was then added 10 μL of the FS1 substrate working solution.
The procedure for the positive control was as follows: 15 μL of BACE working solution was pipetted into each well to be used as a positive control. To each well was then pipetted 2 μL of vehicle. Vehicle and BACE were then mixed with a pipettor and incubated for 20 min at room temperature. To each well was then added 10 μL of the FS1 substrate working solution.
For test compounds, measured at multiple concentrations, the measured T0 and T60 values were used to calculate an IC50 value using Graphpad Software (or PIR). For test compounds, Ki inhibition was determined as follows: For each compound concentration and positive control, rate of cleavage of substrate (Vi, where i=compound concentration in μM) was determined as Δ Fluorescence/Δ time (min). Cleavage rates (Vi) were plotted as a function of inhibitor concentration in μM [I]. The Ki was then determined by fitting the following equation to the graph of [I] vs Vi Y=aVmax/(50+24*(1+X/Ki)),

β-secretase(BACE) [2] = molecular target: T1, β-secretase(BACE); assay: BACE FS1% Inhibition Assay; format: biochemical; details: FS1 substrate; for inhibition at 10 µM: 10 μM test compound, read-out: % Inhibition (FS) 10 μM
Method in brief: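 Human BACE (4 μg/mL working solution) preincubated 20 min at room temperature with compound, then FS1 substrate (300 μg/mL working solution) added and incubated 1 h at room temperature. Percent inhibition calculated at each compound concentration against blank and vehicle controls.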

[3] = 0.3 μM test compound, read-out: % Inhibition (FS) 0.3 μM
[4] = 1 μM test compound, read-out: % Inhibition (FS) 1 μM
[5] = 3 μM test compound, read-out: % Inhibition (FS) 3 μM
[6] = 0.3 μM test compound, read-out: % Inhibition (FS)
[7] = 1 μM test compound, read-out: % Inhibition (FS)
[8] = 3 μM test compound, read-out: % Inhibition (FS)

T1 sequence (P56817 46-501): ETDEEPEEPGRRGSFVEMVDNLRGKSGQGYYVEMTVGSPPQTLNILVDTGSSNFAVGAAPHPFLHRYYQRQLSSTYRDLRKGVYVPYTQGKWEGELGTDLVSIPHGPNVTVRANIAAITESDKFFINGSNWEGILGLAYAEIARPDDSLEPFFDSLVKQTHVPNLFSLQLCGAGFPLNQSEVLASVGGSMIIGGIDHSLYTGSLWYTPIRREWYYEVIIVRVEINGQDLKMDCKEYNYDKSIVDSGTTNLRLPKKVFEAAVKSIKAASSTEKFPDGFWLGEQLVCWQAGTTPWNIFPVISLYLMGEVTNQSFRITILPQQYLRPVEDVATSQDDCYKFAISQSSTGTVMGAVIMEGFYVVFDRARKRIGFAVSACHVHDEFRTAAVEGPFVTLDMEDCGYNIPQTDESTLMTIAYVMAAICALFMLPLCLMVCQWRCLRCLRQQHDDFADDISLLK

Ki (β-secretase(BACE) [1])	inhibition at 0.3 µM (β-secretase(BACE) [2]; [3]) [%]	inhibition at 1 µM (β-secretase(BACE) [2]; [4]) [%]	inhibition at 3 µM (β-secretase(BACE) [2]; [5]) [%]	% Inhibition (FS) (β-secretase(BACE) [2]; 0.3 μM test compound, 0.3 µM) [%]	inhibition at 0.3 µM (β-secretase(BACE) [2]; [6]) [%]	% Inhibition (FS) (β-secretase(BACE) [2]; 1 μM test compound, 1 µM) [%]	inhibition at 1 µM (β-secretase(BACE) [2]; [7]) [%]	% Inhibition (FS) (β-secretase(BACE) [2]; 3 μM test compound) [%]	inhibition at 3 µM (β-secretase(BACE) [2]; [8]) [%]	inhibition at 10 µM (β-secretase(BACE) [2]) [%]	SMILES
0.49 µM	< 30	< 30	78	–	–	–	–	–	–	–	CN(C(=O)c1cccc(CN2Cc3cc(-c4ccccc4[N+](=O)[O-])ccc3N=C2N)c1)C1CCCCC1 [Compound 333]
0.029 µM and 0.022 µM	–	–	–	98	100	129	126	138	138	–	CN(C(=O)CC[C@@H](C1CCCCC1)N1Cc2cc(Oc3ccccc3)ccc2N=C1N)C1CCC(C(=O)O)CC1 (stereo partly drawn) [Compound 714, 4-{[4-(2-Amino-6-phenoxy-4H-quinazolin-3-yl)-4-(S)-cyclohexyl-butyryl]-methyl-amino}-cyclohexanecarboxylic acid]
0.086 µM	61	83	118	–	–	–	–	–	–	–	NC1=Nc2ccc(-c3ccccc3Cl)cc2CN1CCNC(=O)C1CCCCC1 [Compound 536]
0.061 µM	–	–	–	–	87	–	110	–	116	–	CN(C(=O)CC[C@@H](C1CCCCC1)N1Cc2cc(Oc3ccccc3)ccc2N=C1N)[C@H]1CC[C@@H](C(N)=O)CC1 [Compound 764, 4-{[4-(2-Amino-6-phenoxy-4H-quinazolin-3-yl)-4S-cyclohexyl-butyryl]-methyl-amino}-S,R-cyclohexanecarboxylic acid amide]
0.52 µM	< 30	55	87	–	–	–	–	–	–	–	CN(C(=O)c1cccc(CN2Cc3cc(-c4ccccc4OC(F)(F)F)ccc3N=C2N)c1)C1CCCCC1 [Compound 324]
0.046 µM	83	102	111	–	–	–	–	–	–	–	CC(C)CCC(=O)NCCN1Cc2cc(-c3ccccc3Cl)ccc2N=C1N [Compound 654]
0.041 µM	83	106	125	–	–	–	–	–	–	–	Cc1ccccc1-c1ccc2c(c1)CN(CCNC(=O)C1CCCCC1)C(N)=N2 [Compound 537]
0.33 µM	< 30	61	92	–	–	–	–	–	–	–	CC(=O)Nc1ccccc1-c1ccc2c(c1)CN(Cc1cccc(C(=O)N(C)C3CCCCC3)c1)C(N)=N2 [Compound 328]
0.54 µM	47	72	111	–	–	–	–	–	–	–	CONC1=Nc2ccc(-c3ccccc3OC)cc2CN1Cc1cccc(C(=O)N(C)C2CCCCC2)c1 [Compound 605, N-Cyclohexyl-3-[2-methoxyamino-6-(2-methoxy-phenyl)-4H-quinazolin-3-ylmethyl]-N-methyl-benzamide]
0.19 µM	< 30	70	104	–	–	–	–	–	–	–	CN(C(=O)CCN1Cc2cc(Oc3ccccc3)ccc2N=C1N)C1C2CC3CC(C2)CC1C3 (centres unmarked) [Compound 618]
0.1 µM	–	–	–	–	39	–	104	–	134	–	CN(C(=O)CCC(C1CCCCC1)N1Cc2cc(Oc3ccccc3)ccc2N=C1N)C1CCC(O)CC1 (centres unmarked) [Compound 712]
0.031 µM	–	–	–	–	91	–	108	–	112	–	COC(=O)[C@H]1CC[C@@H](N(C)C(=O)CC[C@@H](C2CCOCC2)N2Cc3cc(Oc4ccccc4)ccc3N=C2N)CC1 [Compound 744]
0.173 µM	–	–	–	–	46	–	79	–	105	–	NC1=Nc2ccc(Oc3ccccc3)cc2CN1[C@@H](CCC(=O)N[C@@H](CO)C(=O)O)C1CCOCC1 [Compound 771]
0.23 µM	–	–	–	–	47	–	63	–	111	–	Cc1cc(CN(C)C(=O)CC[C@@H](C2CCCCC2)N2Cc3cc(-c4ccccc4F)ccc3N=C2N)on1 [Compound 723]
0.33 µM	–	–	–	–	33	–	61	–	100	–	CCCN1Cc2cc(Oc3cccc(NCc4ccc(C)cc4)c3)ccc2N=C1N [Compound 729]
0.3 µM	–	–	–	–	72	–	93	–	138	–	COc1ccccc1-c1ccc2c(c1)CN([C@@H](CCC(=O)N(C)CCC#N)C1CCCCC1)C(N)=N2 [Compound 720]
0.035 µM	–	–	–	–	85	–	104	–	112	–	CN(C(=O)CC[C@@H](C1CCOCC1)N1Cc2cc(Oc3ccccc3)ccc2N=C1N)[C@H]1CC[C@H](C(=O)O)CC1 [Compound 746]
0.101 µM	–	–	–	–	97	–	105	–	114	–	COC(=O)[C@H](COCc1ccccc1)N(C)C(=O)CC[C@@H](C1CCOCC1)N1Cc2cc(Oc3ccccc3)ccc2N=C1N [Compound 786]
0.17 µM	–	–	–	–	47	–	83	–	109	–	Cc1ccccc1-c1ccc2c(c1)CN(CCNC(=O)C1CCOCC1)C(N)=N2 [Compound 693]

More lines, now with the values behind:

SMILES	Ki (β-secretase(BACE) [1])	inhibition at 0.3 µM (β-secretase(BACE) [2]; [3]) [%]	inhibition at 1 µM (β-secretase(BACE) [2]; [4]) [%]	inhibition at 3 µM (β-secretase(BACE) [2]; [5]) [%]	% Inhibition (FS) (β-secretase(BACE) [2]; 0.3 μM test compound, 0.3 µM) [%]	inhibition at 0.3 µM (β-secretase(BACE) [2]; [6]) [%]	% Inhibition (FS) (β-secretase(BACE) [2]; 1 μM test compound, 1 µM) [%]	inhibition at 1 µM (β-secretase(BACE) [2]; [7]) [%]	% Inhibition (FS) (β-secretase(BACE) [2]; 3 μM test compound) [%]	inhibition at 3 µM (β-secretase(BACE) [2]; [8]) [%]	inhibition at 10 µM (β-secretase(BACE) [2]) [%]
CCCCCC(CCC(=O)NC1CCCCC1)N1Cc2cc(Oc3ccccc3)ccc2N=C1N (centres unmarked) [Compound 149]	0.21 µM	32	71	111	–	–	–	–	–	–	–
CC(C)(C)OC[C@@H](NC(=O)CC[C@@H](C1CCOCC1)N1Cc2cc(Oc3ccccc3)ccc2N=C1N)C(=O)O [Compound 774, 2-[4-(2-Amino-6-phenoxy-4H-quinazolin-3-yl)-4S-(tetrahydro-pyran-4-yl)-butyrylamino]-3R-tert-butoxy-propionic acid]	0.003 µM	–	–	–	–	122	–	120	–	124	–
Cc1cccc(C)c1-c1ccc2c(c1)CN(Cc1cccc(C(=O)N(C)C3CCCCC3)c1)C(N)=N2 [Compound 262]	0.66 µM	39	63	95	–	–	–	–	–	–	–
CC(C)N(C(=O)c1cccc(CN2Cc3cc(Oc4ccccc4)ccc3N=C2N)c1)C1CCCCC1 [Compound 192]	0.22 µM	38	92	110	–	–	–	–	–	–	–
CCCC(CCCC(=O)NC1CCCCCC1)N1Cc2cc(Oc3ccccc3)ccc2N=C1N (centres unmarked) [Compound 137]	0.73 µM	–	–	82	–	–	–	–	–	–	107
NC1=Nc2ccc(Oc3ccccc3)cc2CN1C(CNC(=O)C(c1ccccc1)c1ccccc1)C1CCCCC1 (centres unmarked) [Compound 304]	0.56 µM	< 30	46	100	–	–	–	–	–	–	–
CN(C(=O)CCC(c1ccccc1)N1Cc2cc(Oc3ccccc3)ccc2N=C1N)C1CCCCC1 (centres unmarked) [Compound 151]	0.23 µM	–	–	79	–	–	–	–	–	–	104
CN(C(=O)c1cccc(CN2Cc3cc(-c4cccnc4)ccc3N=C2N)c1)C1CCCCC1 [Compound 170]	0.77 µM	< 30	49	67	–	–	–	–	–	–	–
CN(C(=O)c1cccc(CN2Cc3cc(-c4ccccc4C(F)(F)F)ccc3N=C2N)c1)C1CCCCC1 [Compound 268]	0.65 µM	< 30	< 30	71	–	–	–	–	–	–	–
CC(C)C(CC(=O)N(C)C1CCCCC1)N1Cc2cc(Oc3ccccc3)ccc2N=C1N (centres unmarked) [Compound 201]	0.4 µM	< 30	< 30	66	–	–	–	–	–	–	–
NC1=Nc2ccc(Oc3ccccc3)cc2CN1CCNC(=O)CCC1CCCC1 [Compound 140]	0.32 µM	–	–	79	–	–	–	–	–	–	101
CN(C(=O)c1cccc(CN2Cc3cc(-c4ccccc4C#N)ccc3N=C2N)c1)C1CCCCC1 [Compound 263]	0.77 µM	20	60	92	–	–	–	–	–	–	–
CCCCCC(CCC(=O)N(C)C1CCCCC1)N1Cc2cc(Oc3ccccc3)ccc2N=C1N (centres unmarked) [Compound 148]	0.25 µM	35	62	114	–	–	–	–	–	–	–
